The values below come from BindingDB's records for doi:10.1021/jm970096g (National Cancer Institute-Frederick, 1998).

Each structure is given as a SMILES string.

Experiment [1] in a line: Cross Resistance (antiviral activity) with V108I (Non nucleoside reverse transcriptase inhibitor) resistant HIV isolate v.
Experiment [2] in a line: Cross Resistance (antiviral activity) with A98G (Non nucleoside reverse transcriptase inhibitor) resistant HIV isolate from cytopathic cell killing assay. For orientation: Protection from cytopathic effect is a common read-out in antiviral testing.
The nature of experiment [3]: Cross Resistance (antiviral activity) with NL4-3(WT) NNRTI (Non nucleoside reverse transcriptase inhibitor) resistant HIV isolate from cytopathic cell killing assay.
Experiment [4] can be described thus: Cross Resistance (antiviral activity) with Y181C (Non nucleoside reverse transcriptase inhibitor) resistant HIV isolate from cytopathic cell killing assay.
Experiment [5] in a line: Cross Resistance (antiviral activity) with 4xAZT/L100I (Non nucleoside reverse transcriptase inhibitor) resistant HIV isolate from cytopathic cell killing assay.
The nature of experiment [6]: Cross Resistance (antiviral activity) with V179D (Non nucleoside reverse transcriptase inhibitor) resistant HIV isolate from cytopathic cell killing assay.
Experiment [7] is described as follows: Cross Resistance (antiviral activity) with 4xAZT/Y181C (Non nucleoside reverse transcriptase inhibitor) resistant HIV isolate from cytopathic cell killing assay.
Experiment [8] in a line: Cross Resistance (antiviral activity) with V106A (Non nucleoside reverse transcriptase inhibitor) resistant HIV isolate from cytopathic cell killing assay.
Experiment [9] can be described thus: Cross Resistance (antiviral activity) with L100I (Non nucleoside reverse transcriptase inhibitor) resistant HIV isolate from cytopathic cell killing assay.
Experiment [10] is described as follows: Cross Resistance (antiviral activity) with L74V (nucleoside reverse transcriptase inhibitor) resistant HIV isolate from cytopathic cell killing assay.
A short description of experiment [11]: Cross Resistance (antiviral activity) with 4xAZT (nucleoside reverse transcriptase inhibitor) resistant HIV isolate from cytopathic cell killing assay.
Experiment [12] is described as follows: Cross Resistance (antiviral activity) with K103N (Non nucleoside reverse transcriptase inhibitor) resistant HIV isolate from cytopathic cell killing assay.
Experiment [13] in a line: Cross Resistance (antiviral activity) with K101E (Non nucleoside reverse transcriptase inhibitor) resistant HIV isolate from cytopathic cell killing assay.
Experiment [14] is described as follows: Cross Resistance (antiviral activity) with Y188C (Non nucleoside reverse transcriptase inhibitor) resistant HIV isolate from cytopathic cell killing assay.
Experiment [15] can be described thus: Cross Resistance (antiviral activity) with Y181C (Non nucleoside reverse transcriptase inhibitor) resistant HIV isolate from cytopathic cell killing assay. The source holds these as a separate data set.
The nature of experiment [16]: Cross Resistance (antiviral activity) with K101E (Non nucleoside reverse transcriptase inhibitor) resistant HIV isolate from cytopathic cell killing assay. The source holds these as a separate data set.
Experiment [17] can be described thus: Cross Resistance (antiviral activity) with V108I (Non nucleoside reverse transcriptase inhibitor) resistant HIV isolate from cytopathic cell killing assay.
Experiment [18] is described as follows: Cross Resistance (antiviral activity) with A98G (Non nucleoside reverse transcriptase inhibitor) resistant HIV isolate from cytopathic cell killing assay. This is another data set of the same source.
The nature of experiment [19]: Cross Resistance (antiviral activity)of the compound with 4xAZT/Y181C (Non nucleoside reverse transcriptase inhibitor) resistant HIV isolate from cytopathic cell killing assay.

`Cc1cccc2c1nc(-c1c(F)cccc1F)n2Cc1c(F)cccc1F`: the EC50 – broadly, the concentration at which the effect is half-maximal – was found to be 2.8 µM in experiment [1]; 1.4 µM in experiment [2]; 0.5 µM in [3]; 6 µM in experiment [4]; 0.2 µM in experiment [5]; 0.5 µM in experiment [6]. Besides, the EC50 in [7] amounted to 3.5 µM; in experiment [8], 20 µM; in experiment [9], 0.3 µM; in [10] it was 0.1 µM; in experiment [11], 0.1 µM; in experiment [12], 8.1 µM. In addition, the results for the EC50 in experiment [13] and in experiment [14] were 16.7 µM and 2.3 µM, respectively.
`Fc1cccc(F)c1Cn1c(-c2c(F)cccc2F)nc2ccccc21`: the EC50 in experiment [15] is 15.2 µM; in experiment [2], 4.75 µM; in [3], 1.85 µM; in experiment [5] it was 0.84 µM; in [6], 2.3 µM; in [7] it was above 20 µM. Further, the EC50 is above 20 µM in [16]; above 20 µM in experiment [8]; 0.46 µM in experiment [10]; 0.27 µM in experiment [11]; 12.9 µM in experiment [12]; 10.4 µM in experiment [17]. This compound yielded an EC50 in experiment [14] of 11.7 µM.
In the case of `Fc1cccc(F)c1C1SCc2nc3ccccc3n21` (centres undefined) [3-(2,6-difluorophenyl)-4-thia-2,7-diazatricyclo[6.4.0.0^{2,6}]dodeca-1(12),6,8,10-tetraene], the EC50 in experiment [3] is 1.7 µM; in experiment [4], 16.3 µM; in [5], 1.7 µM; in [6], 3.1 µM; in [7], 14.5 µM; in [16] it was above 20 µM. Further, the EC50 is above 20 µM in experiment [8]; 12.2 µM in [9]; 0.7 µM in experiment [10]; 1.5 µM in [11]; above 20 µM in experiment [12]; 17.7 µM in experiment [18]. In addition, the EC50 in experiment [17] stood at 9.7 µM.
Turning to `CC1Cn2c(=O)[nH]c3cccc(c32)CN1` (stereo not drawn) [(S-(+))-8-Methyl-6,7,8,9-tetrahydro-2H-2,7,9a-triaza-benzo[cd]azulen-1-one], the EC50 in experiment [2] is 11 µM; in experiment [3], 0.3 µM; in experiment [4], 4.2 µM; in [5] it was above 17.4 µM; in [6] it was 6.2 µM; in [16] it was 17.4 µM. Also, the concentration for a half-maximal effect (EC50) turned out to be 12.5 µM in experiment [8]; 17.4 µM in experiment [9]; 0.2 µM in experiment [10]; 0.3 µM in experiment [11]; 2 µM in experiment [19]; 17.4 µM in experiment [12]. For the same compound, the values for the EC50 in [17] and in experiment [14] were 2.4 µM and above 17.4 µM, respectively.
